Assays:
Type in all cases: in vivo
[1] = test system: green foxtail (Setaria viridis); test: Test A preemergence soil spray, visual injury rating 0-100; conditions: 10 days
In short: (§1)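 Compound in a non-phytotoxic, surfactant-containing solvent is applied either as a directed soil spray before seedlings emerge or onto emerged plants 2-10 cm tall; pots hold a loam-sand blend. Plants grow 10 days under greenhouse conditions and are rated by eye against untreated controls (0 no effect, 100 complete control).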

[2] = test system: ryegrass, Italian (italian ryegrass, Lolium multiflorum); test: as above; conditions: 10 days
In short: as §1

[3] = test system: barnyardgrass (Echinochloa crus-galli); test: as above; conditions: 10 days
In short: as §1

[4] = test system: corn (Zea mays); test: as above; conditions: 10 days
In short: as §1

[5] = test system: ragweed (common ragweed, Ambrosia artemisiifolia); test: as above; conditions: 10 days
In short: as §1

[6] = test system: soybean (Glycine max); test: as above; conditions: 10 days
In short: as §1

[7] = test system: kochia (Bassia scoparia); test: as above; conditions: 10 days
In short: as §1

[8] = test system: palmer (palmer amaranth, palmer pigweed, Amaranthus palmeri); test: as above; conditions: 10 days
In short: as §1

[9] = test system: blackgrass (Alopecurus myosuroides); test: as above; conditions: 10 days
In short: as §1

[10] = test system: oat, wild (wild oat, Avena fatua); test: as above; conditions: 10 days
In short: as §1

[11] = test system: wheat (Triticum aestivum); test: as above; conditions: 10 days
In short: as §1

[12] = test system: barnyardgrass (Echinochloa crusgalli); test: Test B flooded paddy test, visual plant response rating 0-100; conditions: 250 g ai/ha, Flood, applied to paddy water, evaluated after 13 days
In short: (§2)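 Visual evaluation after 13 days. Water-applied treatment, 3 cm flood depth held constant, plants at 2-leaf stage at treatment.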

[13] = test system: sedge, umbrella (small-flower umbrella sedge, Cyperus difformis); test: as above; conditions: 250 g ai/ha, Flood, applied to paddy water, evaluated after 13 days
In short: as §2

[14] = test system: ducksalad (Heteranthera limosa); test: as above; conditions: 250 g ai/ha, Flood, applied to paddy water, evaluated after 13 days
In short: as §2

[15] = test system: rice (Oryza sativa); test: as above; conditions: 250 g ai/ha, Flood, applied to paddy water, evaluated after 13 days
In short: as §2

[16] = test system: green foxtail (Setaria viridis); test: Test A postemergence application, visual injury rating 0-100
In short: as §1

[17] = test system: ryegrass, Italian (italian ryegrass, Lolium multiflorum); test: as above
In short: as §1

[18] = test system: barnyardgrass (Echinochloa crus-galli); test: as above
In short: as §1

[19] = test system: corn (Zea mays); test: as above
In short: as §1

[20] = test system: ragweed (common ragweed, Ambrosia artemisiifolia); test: as above
In short: as §1

[21] = test system: soybean (Glycine max); test: as above
In short: as §1

[22] = test system: kochia (Bassia scoparia); test: as above
In short: as §1

[23] = test system: horseweed (Erigeron canadensis); test: as above
In short: as §1

[24] = test system: palmer (palmer amaranth, palmer pigweed, Amaranthus palmeri); test: as above
In short: as §1

[25] = test system: blackgrass (Alopecurus myosuroides); test: as above
In short: as §1

[26] = test system: oat, wild (wild oat, Avena fatua); test: as above
In short: as §1

[27] = test system: wheat (Triticum aestivum); test: as above
In short: as §1

[28] = test system: galium (catchweed bedstraw, Galium aparine); test: as above
In short: as §1

[29] = 62 g ai/ha, 0 = no effect, 100 = complete control
[30] = 62 g ai/ha, postemergence, 10 days, 0 = no effect, 100 = complete control
[31] = Postemergence, 16 g ai/ha, greenhouse 10 days, 0 no effect, 100 complete control

CC1(C(=O)NC2C=CC(C(=O)O)C2)CN(c2cc(F)cc(F)c2)C(=O)O1 (stereo not shown) [Compound 131]
30: Blackgrass plant response rating ([9]; 16 g ai/ha, 0 to 100 scale) | Wheat plant response rating ([11]; 16 g ai/ha, 0 to 100 scale) | Foxtail, Green plant response rating (0 to 100 scale) [16, 31]
90: Ryegrass, Italian plant response rating (0-100) [2, 29] | Kochia plant response rating (0-100) [7, 29] | Blackgrass plant response rating (0-100) [9, 29] | Wheat plant response rating (0-100) [11, 29] | Foxtail, Green plant response rating (0-100) [16, 30] | Ryegrass, Italian plant response rating (0-100) [17, 30] | Barnyardgrass plant response rating (0 to 100 scale) [18, 31] | Blackgrass plant response rating (0-100) [25, 30] | Blackgrass plant response rating (0 to 100 scale) [25, 31] | Oat, Wild plant response rating (0-100) [26, 30] | Oat, Wild plant response rating (0 to 100 scale) [26, 31] | Wheat plant response rating (0-100) [27, 30] | Wheat plant response rating (0 to 100 scale) [27, 31] | Galium plant response rating (0-100) [28, 30]
0: Foxtail, Green plant response rating ([1]; 16 g ai/ha, 0 to 100 scale) | Ryegrass, Italian plant response rating ([2]; 16 g ai/ha, 0 to 100 scale) | Barnyardgrass plant response rating ([3]; 16 g ai/ha, 0 to 100 scale) | Ragweed plant response rating ([5]; 16 g ai/ha, 0 to 100 scale) | Soybean plant response rating ([6]; 16 g ai/ha, 0 to 100 scale) | Kochia plant response rating ([7]; 16 g ai/ha, 0 to 100 scale) | Pigweed, Palmer plant response rating ([8]; 16 g ai/ha, 0 to 100 scale) | Oat, Wild plant response rating ([10]; 16 g ai/ha, 0 to 100 scale) | Ragweed plant response rating (0 to 100 scale) [20, 31]
95: Plant response rating, Barnyardgrass (0 to 100 scale, 0 is no effect and 100 is complete control) [12] | Plant response rating, Sedge, Umbrella (0 to 100 scale, 0 is no effect and 100 is complete control) [13]
100: Foxtail, Green plant response rating (0-100) [1, 29] | Barnyardgrass plant response rating (0-100) [18, 30] | Corn plant response rating (0-100) [19, 30]
80: Barnyardgrass plant response rating (0-100) [3, 29] | Corn plant response rating (0-100) [4, 29] | Soybean plant response rating (0-100) [6, 29] | Pigweed, Palmer plant response rating (0-100) [8, 29] | Plant response rating, Ducksalad (0 to 100 scale, 0 is no effect and 100 is complete control) [14] | Soybean plant response rating (0-100) [21, 30] | Soybean plant response rating (0 to 100 scale) [21, 31] | Horseweed plant response rating (0-100) [23, 30] | Pigweed, Palmer plant response rating (0-100) [24, 30]
20: Kochia plant response rating (0 to 100 scale) [22, 31] | Pigweed, Palmer plant response rating (0 to 100 scale) [24, 31]
10: Corn plant response rating ([4]; 16 g ai/ha, 0 to 100 scale) | Ragweed plant response rating (0-100) [5, 29] | Ryegrass, Italian plant response rating (0 to 100 scale) [17, 31]
60: Oat, Wild plant response rating (0-100) [10, 29]
40: Horseweed plant response rating (0 to 100 scale) [23, 31]
70: Plant response rating, Rice (0 to 100 scale, 0 is no effect and 100 is complete control) [15] | Ragweed plant response rating (0-100) [20, 30] | Galium plant response rating (0 to 100 scale) [28, 31]
50: Corn plant response rating (0 to 100 scale) [19, 31] | Kochia plant response rating (0-100) [22, 30]

Source: patent publication US20260285850A1, “SUBSTITUTED OXAZOLIDINONES AND IMIDAZOLINONES AS HERBICIDES” (FMC CORPORATION, priority 2023, published 2026)
